Data published in patent publication US20080081039A1, “Inorganic Selenium For Treatment Of Cancer” (priority 2004, published 2008).
“And” between values parts separate entries of the source, which are not always exact repeats. Identical values can stand only once. Like-named read-outs stand apart in the source and are kept apart here.

Assays:
[1] = test system: PC-3 cells; conditions: 5 weeks, vs controls
Protocol: Animal experimentation involved the use of BALB/c nude mice. On day one of the experiment 6 week old BALB/c nude mice were anaesthetized with an intraperitoneal injection of ketamine 100 mg/kg and xylazine 20 mg/kg. Under magnification 1×10^6 PC-3 cells with viability greater than 95%, were injected into the dorsolateral prostate, essentially as described in Corcoran, N. M., Najdovska, M., and Costello, A. J. (2004), J. Urol., 171:907-910.
On day 3 of the experiment all mice were switched to the D19101 minimal selenium diet with an assayed selenium content of 0.07 ppm (Research Diets Inc., New Brunswick, N.J., USA). […] After 5 weeks of supplementation mice were culled and tumor-containing prostate glands were then weighed and measured with a Vernier calliper. The retroperitonium was then explored under magnification cephadally to the level of the renal veins and lymph nodes measuring greater than 0.5 mm identified.
The degree of apoptosis in tissue samples was determined using an in situ TUNEL Cell Death Detection Kit (Roche Applied Science) according to the manufacture's instructions. The number of brown staining cells at high power (×400) were counted in 10 randomly chosen fields in areas where necrosis was absent on H&E staining of adjacent sections.
The rate of tumor cell proliferation was determined by in vivo BrdU incorporation. Two hours prior to culling, the mice were injected with 50 mg/kg BrdU (Sigma) intraperitoneally. 5 μm sections were cut, fixed in absolute methanol at 4° C. for 10 minutes. Sections were rehydrated in PBS and incubated in 2 N HCl for 1 hour at 37° C. to denature the DNA. The acid was neutralized by immersing the slides in 0.1 M borate buffer (pH 8.5). Following 3×PBS washes the samples were incubated with a monoclonal antibody to bromodeoxyuridine (BrdU) (Roche Applied Science) at a concentration of 5 μg/mL diluted in 0.1% BSA in PBS for 1 hour at room temperature, then overnight at 4° C. Samples were washed 3× times in PBS and incubated for 1 hour with a biotinylated link immunoglobulin mixture (DAKO Corporation). […] 10 fields at high power (×400) were chosen at random and the number of brown staining cells counted.

[2] = test system: PC-3 cells; conditions: 0.25 mM, 54 hours
Protocol: BrdU Incorporation assays and immunofluorescence were carried out by plating 2.5×10^3 PC-3 cells and allowing them to attach overnight. […] Cells were incubated for a further 16 hours, then washed 3× in PBS and fixed in 4% PFA for 10 minutes at room temperature.
Mouse monoclonal anti-BrdU and antibodies were used as the primary antibodies and anti-mouse 488 Alexa, as the secondary antibodies. The percentage of cells incorporating BrdU was determined by counting the number of green staining nuclei per number of DAPI positive cells. 100 DAPI positive cells were counted per coverslip and the experiment performed in triplicate.

[3] = test system: PC-3 cells
Protocol: Cells were allowed to grow until the indicated time points, then harvested, washed in PBS and fixed in ice cold 70% ethanol for 15 minutes. Cells were washed with PBS and resuspended in PBS containing 40 μg/mL of propidum iodide (Sigma) and […] of RNase. DNA histograms were generated for each reading and the proportion of cells present in the G1 and G2/M peaks determined. Results were obtained for three independent experiments.

[4] = test system: Akt; assay: Immunoblot of Akt phosphorylation in serum starved PC-3 cells; format: cell-based, human; conditions: 0.5 mM
From the text: The following antibodies were obtained from Cell Signaling Technology (Beverly, Mass., USA) unless otherwise stated: anti-p27^KIP1 (bd Pharmingen), anti-p21^CIP1 , ANTI-CYCLIN d1, ANTI-CYCLIN d3, ANTI-CDK4, ANTI-CDK6, ANTI-PHOSPHO rb (Ser807/811), anti-RB, anti-phospho Akt (Ser473), anti-phospho Akt (Thre308), anti-Akt, anti-phospho PDK1 (Ser241), anti-phospho PDK1 (Tyr373/376), anti-phospho GSK-3β, anti-phospho mTOR (Ser2448), anti-mTOR, anti-βIII tubulin (Promega).
To determine the effect of selenate on the phosphorylation of proteins involved in the PI3K/Akt signaling cascade, 5×10^5 PC-3 cells were allowed to attach for 10 hours. […] Cells were lysed in ELB (250 mM NaCl, 50 mM HEPES pH 7.0, 5 mM EDTA, 0.5 mM DTT, 0.2% TX100, 20 mM sodium fluoride, 2 mM sodium pervanadate, Complete Protease Inhibitor Cocktail (Roche)). Lysates were centrifuged for 15 minutes at 4° C. Protein concentration was determined using the BCA system (Sigma) and equal amounts of protein were loaded into each lane of a SDS-polyacrylamide gel. The proteins were transferred onto PVDF (Millipore) membranes and detected with anti-mouse or anti-rabbit secondary antibodies couples to horseradish peroxidase (HRP) and chemiluminescence using the SuperSignal West Dura (Pierce). Membranes were stripped using the Restore Western Blot Stripping Buffer (Pierce).

[5] = test system: human prostate cancer PC-3 cells; assay: Cell toxicity by Trypan Blue Exclusion, selenate versus selenite; conditions: 5 μM or 50 μM, 24 to 96 hours
Protocol: 5×10^3 human prostate cancer PC-3 cells were seeded in a 24-well dish and 8 hours later were treated with either 5 μM or 50 μM of selenate or selenite. The dose range of 5 μM or 50 μM is equivalent to 0.1 mg/kg to 1.25 mg/kg. Cells were harvested at 24, 48, 72 and 96 hours following the addition of selenate or selenite and the percentage of viable cells as assessed by Trypan Blue staining was determined.
All cells in the tissue culture wells were then harvested sequentially at periods between 24 and 96 hours following addition of the treatments. The percentage of viable cells were then determined using the Trypan Blue exclusion assay.

[6] = test system: human kidney epithelial Q293 cells; assay: Cell growth curve of Q293 cells, Trypan Blue; format: cell-based; conditions: selenate 5 μM, LY294002 10 μM, 9 days
Protocol: Q293 cells are a human kidney epithelial cell line routinely cultured in DMEM media (Invitrogen) in 5% foetal calf serum and 1% antibiotic/antimycotic mixture (Invitrogen).
Between 5×10^4 (FIGS. 1-2) and 1×10^5 LNCaP, CSS LNCaP or Q293 cells were allowed to attach overnight. […] Supernatants and cells were then harvested, combined and viable cells assessed by Trypan Blue exclusion assay. Experiments were performed in triplicate.

For `O=[Se](=O)(O)O` [sodium selenate], which “number of retroperitoneal lymph nodes” value ([1]; 5 ppm in drinking water, lymph nodes greater than 0.5 mm) is on record?
Its value is “significantly decreased”.

And the “BrdU incorporation in prostate tumors” value ([1]; 5 ppm in drinking water)?
The value was “significantly impaired”.

What about the “apoptosis (Tunel assay) in prostate tumors” value ([1]; 5 ppm in drinking water) of the same compound?
The value was “not significantly different”.

And the tumor volume difference ([1]; 5 ppm in drinking water)?
The tumor volume difference was “just failed to reach significance”.

What about the “primary tumor growth assessed by the prostate weight index” value ([1]; 5 ppm selenium as sodium selenate in drinking water) of the same compound?
The value was “significantly inhibit”.

And the “G1/S progression (BrdU/FrdU positive nuclei)” value [2]?
The value was “severely impeded”.

What about the “percentage of the cell population in G1” value ([3]; 0.25 and 0.5 mM, 24 hours, control 55%) of the same compound?
The value was 69-70%.

And the “percentage of PC-3 cells at G2/M phase” value ([3]; 48 hours)?
Its value is “decreased”.

What about the “percentage of the cell population in G1” value ([3]; 48 hours, dose- and time-dependent) of the same compound?
The value was “increased”.

What about the “percentage of cells at G2/M phase” value ([3]; increasing concentrations (0.25, 0.5 mM), 24 hours, control 28%) of the same compound?
Its value is 19% and 24%.

And the “total cellular Akt levels (pan Akt)” value [4]?
The value was “essentially unchanged”.

And the “Akt activation after the transient boost” value ([4]; later exposure times)?
The value was “marked and prolonged deactivation”.

And the “Akt phosphorylation at Ser473” value ([4]; various time points, FIG. 4D)?
Its value is “profoundly inhibited”.

What about the “phosphorylation of Akt at Ser473 and Thr308, early” value ([4]; within 10 minutes of exposure) of the same compound?
The value was “transient boost”.

And the “cytotoxic effect (Trypan Blue exclusion)” value [5]?
Its value is “not cytotoxic”.

And the “percentages of viable cells” value [5]?
The value was “equivalent to the control untreated samples”.

And the Q293 cell proliferation ([6]; CSS media (androgen ablation))?
Its Q293 cell proliferation is “does not significantly effect”.

And the Q293 cell proliferation ([6]; normal serum)?
Its Q293 cell proliferation is “does not significantly effect”.
